Measured values taken from the supplement of paper PMC10307832.

Assays:
Experiment in all cases: relative viability (nuclei count vs DMSO), 5 days (fraction); higher = more cells survive
Linifanib + Alpelisib = compound: Cc1ccc(F)c(NC(=O)Nc2ccc(-c3cccc4[nH]nc(N)c34)cc2)c1 [Linifanib] + Cc1nc(NC(=O)N2CCC[C@H]2C(N)=O)sc1-c1ccnc(C(C)(C)C(F)(F)F)c1 [Alpelisib] (partner 2 µM)
How it was run: (§1)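 Lung cancer cell lines in 1536-well plates were dosed by pin tool the day after seeding, either with one drug alone or with a fixed anchor-drug dose plus five library-drug doses (not always all listed) in √10 steps. After 5 days, cells were fixed and their nuclei stained in one step (final 0.05% Triton X-100, 1% formaldehyde, 1 ug/ml Hoechst), then counted on 4× images. Relative viability is the nuclei count in treated wells divided by that in vehicle wells. Values are medians of duplicate plates.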

Linifanib + Pictilisib = compound: Cc1ccc(F)c(NC(=O)Nc2ccc(-c3cccc4[nH]nc(N)c34)cc2)c1 [Linifanib] + CS(=O)(=O)N1CCN(Cc2cc3nc(-c4cccc5[nH]ncc45)nc(N4CCOCC4)c3s2)CC1 [Pictilisib] (partner 1 µM)
How it was run: as §1

Linifanib + Linsitinib = compound: Cc1ccc(F)c(NC(=O)Nc2ccc(-c3cccc4[nH]nc(N)c34)cc2)c1 [Linifanib] + C[C@]1(O)C[C@@H](c2nc(-c3ccc4ccc(-c5ccccc5)nc4c3)c3c(N)nccn32)C1 [Linsitinib] (partner 1 µM)
How it was run: as §1

Linifanib + Crizotinib = compound: Cc1ccc(F)c(NC(=O)Nc2ccc(-c3cccc4[nH]nc(N)c34)cc2)c1 [Linifanib] + C[C@@H](Oc1cc(-c2cnn(C3CCNCC3)c2)cnc1N)c1c(Cl)ccc(F)c1Cl [Crizotinib] (partner 1 µM)
How it was run: as §1

Linifanib + Foretinib = compound: Cc1ccc(F)c(NC(=O)Nc2ccc(-c3cccc4[nH]nc(N)c34)cc2)c1 [Linifanib] + COc1cc2c(Oc3ccc(NC(=O)C4(C(=O)Nc5ccc(F)cc5)CC4)cc3F)ccnc2cc1OCCCN1CCOCC1 [Foretinib] (partner 0.25 µM)
How it was run: as §1

Linifanib + Olaparib = compound: Cc1ccc(F)c(NC(=O)Nc2ccc(-c3cccc4[nH]nc(N)c34)cc2)c1 [Linifanib] + O=C(c1cc(Cc2n[nH]c(=O)c3ccccc23)ccc1F)N1CCN(C(=O)C2CC2)CC1 [Olaparib] (partner 8 µM)
How it was run: as §1

Linifanib + Navitoclax = compound: Cc1ccc(F)c(NC(=O)Nc2ccc(-c3cccc4[nH]nc(N)c34)cc2)c1 [Linifanib] + CC1(C)CCC(c2ccc(Cl)cc2)=C(CN2CCN(c3ccc(C(=O)NS(=O)(=O)c4ccc(N[C@H](CCN5CCOCC5)CSc5ccccc5)c(S(=O)(=O)C(F)(F)F)c4)cc3)CC2)C1 [Navitoclax] (partner 0.5 µM)
How it was run: as §1

Linifanib + Phenformin = compound: Cc1ccc(F)c(NC(=O)Nc2ccc(-c3cccc4[nH]nc(N)c34)cc2)c1 [Linifanib] + N=C(N)NC(=N)NCCc1ccccc1 [Phenformin] (partner 250 µM)
How it was run: as §1

Linifanib + Decitabine = compound: Cc1ccc(F)c(NC(=O)Nc2ccc(-c3cccc4[nH]nc(N)c34)cc2)c1 [Linifanib] + Nc1ncn([C@H]2C[C@H](O)[C@@H](CO)O2)c(=O)n1 [Decitabine] (partner 2 µM)
How it was run: as §1

Linifanib + Lapatinib = compound: Cc1ccc(F)c(NC(=O)Nc2ccc(-c3cccc4[nH]nc(N)c34)cc2)c1 [Linifanib] + CS(=O)(=O)CCNCc1ccc(-c2ccc3ncnc(Nc4ccc(OCc5cccc(F)c5)c(Cl)c4)c3c2)o1 [Lapatinib] (partner 2 µM)
How it was run: as §1

Linifanib = compound: Cc1ccc(F)c(NC(=O)Nc2ccc(-c3cccc4[nH]nc(N)c34)cc2)c1 [Linifanib]
How it was run: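 MetaXpress counted nuclei in 4× images of lung cancer cell lines that had been fixed, permeabilised and Hoechst-stained in one step. Before that, cells in 1536-well plates were kept overnight at 37 °C, pinned with five √10-spaced library-drug doses on vehicle-anchored plates, and cultured 5 days without medium change. Viability takes treated-well nuclei over vehicle-well nuclei and uses the median across plates. Plates were accepted only at control CV below 25% and at least one doubling.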

Linifanib + Luminespib = compound: Cc1ccc(F)c(NC(=O)Nc2ccc(-c3cccc4[nH]nc(N)c34)cc2)c1 [Linifanib] + CCNC(=O)c1noc(-c2cc(C(C)C)c(O)cc2O)c1-c1ccc(CN2CCOCC2)cc1 [Luminespib] (partner 0.01 µM)
How it was run: as §1

Linifanib + Pemetrexed = compound: Cc1ccc(F)c(NC(=O)Nc2ccc(-c3cccc4[nH]nc(N)c34)cc2)c1 [Linifanib] + Nc1nc2[nH]cc(CCc3ccc(C(=O)N[C@@H](CCC(=O)O)C(=O)O)cc3)c2c(=O)[nH]1 [Pemetrexed] (partner 0.2 µM)
How it was run: as §1

Linifanib + Dasatinib = compound: Cc1ccc(F)c(NC(=O)Nc2ccc(-c3cccc4[nH]nc(N)c34)cc2)c1 [Linifanib] + Cc1nc(Nc2ncc(C(=O)Nc3c(C)cccc3Cl)s2)cc(N2CCN(CCO)CC2)n1 [Dasatinib] (partner 0.075 µM)
How it was run: as §1

Linifanib + Tozasertib = compound: Cc1ccc(F)c(NC(=O)Nc2ccc(-c3cccc4[nH]nc(N)c34)cc2)c1 [Linifanib] + Cc1cc(Nc2cc(N3CCN(C)CC3)nc(Sc3ccc(NC(=O)C4CC4)cc3)n2)n[nH]1 [Tozasertib] (partner 0.1 µM)
How it was run: as §1

Linifanib + OSI-027 = compound: Cc1ccc(F)c(NC(=O)Nc2ccc(-c3cccc4[nH]nc(N)c34)cc2)c1 [Linifanib] + COc1cccc2cc(-c3nc([C@H]4CC[C@H](C(=O)O)CC4)n4ncnc(N)c34)[nH]c12 [OSI-027] (partner 0.5 µM)
How it was run: as §1

Linifanib + Trametinib = compound: Cc1ccc(F)c(NC(=O)Nc2ccc(-c3cccc4[nH]nc(N)c34)cc2)c1 [Linifanib] + CC(=O)Nc1cccc(-n2c(=O)n(C3CC3)c(=O)c3c(Nc4ccc(I)cc4F)n(C)c(=O)c(C)c32)c1 [Trametinib] (partner 0.02 µM)
How it was run: as §1

Linifanib + Palbociclib = compound: Cc1ccc(F)c(NC(=O)Nc2ccc(-c3cccc4[nH]nc(N)c34)cc2)c1 [Linifanib] + CC(=O)c1c(C)c2cnc(Nc3ccc(N4CCNCC4)cn3)nc2n(C2CCCC2)c1=O [Palbociclib] (partner 0.5 µM)
How it was run: as §1

Linifanib + AZD7762 = compound: Cc1ccc(F)c(NC(=O)Nc2ccc(-c3cccc4[nH]nc(N)c34)cc2)c1 [Linifanib] + NC(=O)Nc1cc(-c2cccc(F)c2)sc1C(=O)N[C@H]1CCCNC1 [AZD7762] (partner 0.2 µM)
How it was run: as §1

Linifanib + Vorinostat = compound: Cc1ccc(F)c(NC(=O)Nc2ccc(-c3cccc4[nH]nc(N)c34)cc2)c1 [Linifanib] + O=C(CCCCCCC(=O)Nc1ccccc1)NO [Vorinostat] (partner 1 µM)
How it was run: as §1

A549
relative viability (Linifanib + Alpelisib; first compound 0.03162 µM): 0.885
relative viability (Linifanib + Alpelisib; first compound 0.1 µM): 0.948
relative viability (Linifanib + Alpelisib; first compound 0.3162 µM): 0.647
relative viability (Linifanib + Pictilisib; first compound 0.03162 µM): 0.399
relative viability (Linifanib + Pictilisib; first compound 0.1 µM): 0.515
relative viability (Linifanib + Pictilisib; first compound 0.3162 µM): 0.49
relative viability (Linifanib + Linsitinib; first compound 0.03162 µM): 0.583
relative viability (Linifanib + Linsitinib; first compound 0.1 µM): 0.716
relative viability (Linifanib + Linsitinib; first compound 0.3162 µM): 0.638
relative viability (Linifanib + Crizotinib; first compound 0.03162 µM): 0.795
relative viability (Linifanib + Crizotinib; first compound 0.1 µM): 0.907
relative viability (Linifanib + Crizotinib; first compound 0.3162 µM): 0.726
relative viability (Linifanib + Foretinib; first compound 0.03162 µM): 0.972
relative viability (Linifanib + Foretinib; first compound 0.1 µM): 0.922
relative viability (Linifanib + Foretinib; first compound 0.3162 µM): 0.808
relative viability (Linifanib + Olaparib; first compound 0.03162 µM): 0.369
relative viability (Linifanib + Olaparib; first compound 0.1 µM): 0.535
relative viability (Linifanib + Olaparib; first compound 0.3162 µM): 0.305
relative viability (Linifanib + Navitoclax; first compound 0.03162 µM): 1.18
relative viability (Linifanib + Navitoclax; first compound 0.1 µM): 1.28
relative viability (Linifanib + Navitoclax; first compound 0.3162 µM): 1.09
relative viability (Linifanib + Phenformin; first compound 0.03162 µM): 0.197
relative viability (Linifanib + Phenformin; first compound 0.1 µM): 0.215
relative viability (Linifanib + Phenformin; first compound 0.3162 µM): 0.159
relative viability (Linifanib + Decitabine; first compound 0.03162 µM): 0.285
relative viability (Linifanib + Decitabine; first compound 0.1 µM): 0.309
relative viability (Linifanib + Decitabine; first compound 0.3162 µM): 0.374
relative viability (Linifanib + Lapatinib; first compound 0.03162 µM): 0.974
relative viability (Linifanib + Lapatinib; first compound 0.1 µM): 1.06
relative viability (Linifanib + Lapatinib; first compound 0.3162 µM): 0.929
relative viability (Linifanib; 0.03162 µM): 1.01
relative viability (Linifanib; 0.1 µM): 1.05
relative viability (Linifanib; 0.3162 µM): 0.996

NCI-H522
relative viability (Linifanib + Luminespib; first compound 0.03162 µM): 1.18
relative viability (Linifanib + Luminespib; first compound 0.1 µM): 0.98
relative viability (Linifanib + Luminespib; first compound 0.3162 µM): 1.13
relative viability (Linifanib + Pemetrexed; first compound 0.03162 µM): 0.945
relative viability (Linifanib + Pemetrexed; first compound 0.1 µM): 0.798
relative viability (Linifanib + Pemetrexed; first compound 0.3162 µM): 1.06
relative viability (Linifanib + Dasatinib; first compound 0.03162 µM): 0.862
relative viability (Linifanib + Dasatinib; first compound 0.1 µM): 0.868
relative viability (Linifanib + Dasatinib; first compound 0.3162 µM): 0.871
relative viability (Linifanib + Tozasertib; first compound 0.03162 µM): 0.556
relative viability (Linifanib + Tozasertib; first compound 0.1 µM): 0.542
relative viability (Linifanib + Tozasertib; first compound 0.3162 µM): 0.474
relative viability (Linifanib + OSI-027; first compound 0.03162 µM): 0.815
relative viability (Linifanib + OSI-027; first compound 0.1 µM): 0.721
relative viability (Linifanib + OSI-027; first compound 0.3162 µM): 0.719
relative viability (Linifanib + Trametinib; first compound 0.03162 µM): 0.643
relative viability (Linifanib + Trametinib; first compound 0.1 µM): 0.713
relative viability (Linifanib + Trametinib; first compound 0.3162 µM): 0.736
relative viability (Linifanib + Olaparib; first compound 0.03162 µM): 0.555
relative viability (Linifanib + Olaparib; first compound 0.1 µM): 0.693
relative viability (Linifanib + Olaparib; first compound 0.3162 µM): 0.667
relative viability (Linifanib + Palbociclib; first compound 0.03162 µM): 1.05
relative viability (Linifanib + Palbociclib; first compound 0.1 µM): 0.954
relative viability (Linifanib + Palbociclib; first compound 0.3162 µM): 0.995
relative viability (Linifanib + Phenformin; first compound 0.03162 µM): 0.716
relative viability (Linifanib + Phenformin; first compound 0.1 µM): 0.647
relative viability (Linifanib + Phenformin; first compound 0.3162 µM): 0.551
relative viability (Linifanib + Decitabine; first compound 0.03162 µM): 0.613
relative viability (Linifanib + Decitabine; first compound 0.1 µM): 0.703
relative viability (Linifanib + Decitabine; first compound 0.3162 µM): 0.759
relative viability (Linifanib + AZD7762; first compound 0.03162 µM): 0.879
relative viability (Linifanib + AZD7762; first compound 0.1 µM): 0.804
relative viability (Linifanib + AZD7762; first compound 0.3162 µM): 0.809
relative viability (Linifanib + Vorinostat; first compound 0.03162 µM): 0.851
relative viability (Linifanib + Vorinostat; first compound 0.1 µM): 0.88
relative viability (Linifanib + Vorinostat; first compound 0.3162 µM): 0.929
relative viability (Linifanib; 0.03162 µM): 0.943
relative viability (Linifanib; 0.1 µM): 1.02
relative viability (Linifanib; 0.3162 µM): 0.995
